Here are results for two molecules from PMC4823724 (Scientific Reports, 2016).

Test [1] relates to RpfG.
Test [2] deals with RpfG. This is another data set of the same source.

Sequence of RpfG (G7TEN6 1-378): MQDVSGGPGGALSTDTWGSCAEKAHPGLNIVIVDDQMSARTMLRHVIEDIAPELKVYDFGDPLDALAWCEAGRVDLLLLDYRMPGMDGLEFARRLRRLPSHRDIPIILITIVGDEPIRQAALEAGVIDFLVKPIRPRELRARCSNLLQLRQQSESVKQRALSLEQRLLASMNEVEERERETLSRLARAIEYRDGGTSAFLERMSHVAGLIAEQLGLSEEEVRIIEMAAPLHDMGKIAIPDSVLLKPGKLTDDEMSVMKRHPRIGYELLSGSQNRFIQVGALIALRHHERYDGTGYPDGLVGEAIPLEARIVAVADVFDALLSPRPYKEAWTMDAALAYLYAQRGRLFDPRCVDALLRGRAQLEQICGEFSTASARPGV

Regarding `O=[N+]([O-])c1ccc(OP(=O)(O)Oc2ccc([N+](=O)[O-])cc2)cc1` [bis(p-nitrophenyl) phosphate], the “colorimetric phosphodiesterase assay at 410 nm” value with RpfG [1] was “RpfG efficiently converted bis(p-nitrophenyl) phosphate into p-nitrophenol”.

Turning to `Nc1nc2c(ncn2[C@@H]2O[C@@H]3COP(=O)(O)O[C@H]4[C@@H](O)[C@H](n5cnc6c(=O)[nH]c(N)nc65)O[C@@H]4COP(=O)(O)O[C@H]3[C@H]2O)c(=O)[nH]1` [c-di-GMP], in the test on RpfG [2], the HPLC phosphodiesterase assay result is listed as “degraded product pGpG was produced when RpfG was incubated with c-di-GMP”.
